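Each compound was tested at five concentrations against cells in 96-well plates for 48 hours. Here, GI50 denotes the concentration required for 50% inhibition of growth. The concentration for full growth arrest is given as TGI.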
Legend:
Test in all cases: NCI-60 cell line screen, 48 h
SW-620 colon = tested on: SW-620 colon
CCRF-CEM leukemia = tested on: CCRF-CEM leukemia
IGROV1 ovarian = tested on: IGROV1 ovarian
HCC-2998 colon = tested on: HCC-2998 colon
K-562 leukemia = tested on: K-562 leukemia
SK-OV-3 ovarian = tested on: SK-OV-3 ovarian
NCI-H226 lung = tested on: NCI-H226 lung
LOX IMVI melanoma = tested on: LOX IMVI melanoma
HT29 colon = tested on: HT29 colon
HCT-15 colon = tested on: HCT-15 colon

SMILES | GI50 (SW-620 colon) | TGI (SW-620 colon) | GI50 (CCRF-CEM leukemia) | TGI (CCRF-CEM leukemia) | GI50 (IGROV1 ovarian) | TGI (IGROV1 ovarian) | GI50 (HCC-2998 colon) | TGI (HCC-2998 colon) | GI50 (K-562 leukemia) | TGI (K-562 leukemia) | GI50 (SK-OV-3 ovarian) | TGI (SK-OV-3 ovarian) | GI50 (NCI-H226 lung) | TGI (NCI-H226 lung) | GI50 (LOX IMVI melanoma) | TGI (LOX IMVI melanoma) | GI50 (HT29 colon) | TGI (HT29 colon) | TGI (HCT-15 colon) | GI50 (HCT-15 colon)
C=C(C)[C@@H]1CC[C@]2(CO)CC[C@]3(C)[C@H](CC[C@@H]4[C@@]5(C)C=C(C#N)C(=O)C(C)(C)[C@@H]5CC[C@]43C)[C@@H]12 | 2.24 µM | 5.12 µM | 2.11 µM | 8.7 µM | 0.684 µM | 4.65 µM | 2.03 µM | 4.22 µM | 2.2 µM | > 100 µM | 2.72 µM | 6.12 µM | 2.39 µM | 5.49 µM | 1.18 µM | 2.68 µM | 1.16 µM | 4.76 µM |  | 
CC(=O)O[C@H]1CCC2[C@@H]3CC[C@]4(C)CC(=O)C=C[C@]4(C)C3CC[C@@]21C (stereo not given in full) |  | 33.8 µM |  | 57.9 µM |  | 58.3 µM |  | > 88.5 µM |  | > 100 µM |  | > 100 µM |  | > 77.7 µM |  | 30.9 µM |  | 32.8 µM | 38.7 µM | 
O=C(/C=C/c1ccc(Cl)c(Cl)c1)c1ccc2ccccc2c1 |  | > 100 µM |  | > 100 µM |  | > 100 µM |  | > 100 µM |  | > 100 µM |  | > 100 µM |  | > 100 µM |  | > 100 µM |  | > 100 µM | > 100 µM | 
CC(C)c1c(O)c(O)c2c(c1O)C(=O)C(O)=C1C(C)(C)CCC[C@@]12C |  | 11.8 µM |  | 7.43 µM |  | 13.9 µM |  | 10.4 µM |  | 9.69 µM |  | 15.6 µM |  | 7.88 µM |  | 13.8 µM |  | 10.2 µM | 13.2 µM | 
COc1ccc(-c2[nH]c3ccc(OC)cc3c2/C=C(\C#N)S(=O)(=O)c2ccccc2)cc1 | 0.534 µM | > 100 µM | 0.894 µM | 6.19 µM | 3.76 µM | > 45.9 µM | 1.95 µM | 5.87 µM | 0.475 µM |  | 0.963 µM | > 65.9 µM | 3.51 µM | > 100 µM | 1.15 µM | > 100 µM | 0.435 µM | > 32.2 µM | > 100 µM | 0.614 µM
CC1=CC(C)(C)N=C2SC(c3ccc(N)cc3)=NN12 |  | > 61.2 µM |  | > 72.4 µM |  | > 100 µM |  | > 100 µM |  | > 66 µM |  | > 100 µM |  | > 100 µM |  | > 100 µM |  | 98.2 µM | > 58.7 µM | 
CN1CCN(CCCNc2nc3ccc(Oc4ccc(NC(=O)Nc5cc(C(F)(F)F)ccc5F)cc4)cc3[nH]2)CC1 | 4.35 µM | 7.79 µM | 4.96 µM | 10.8 µM | 9.62 µM | > 23.9 µM | 4.35 µM | 8.1 µM | 4.84 µM | 11.1 µM | 4.36 µM | 10.3 µM | 5.55 µM | 16.8 µM | 4.25 µM | 7.91 µM | 4.09 µM | 7.93 µM | > 25 µM | > 25 µM
COc1cc2c3c(n(CCCN)c(=O)c2cc1OC)-c1ccc(C#N)cc1C3=O | 11 µM | 30.6 µM | 6.44 µM | 31.7 µM | 8.79 µM | > 100 µM | 3.05 µM | 15 µM |  | 65.4 µM | 12.7 µM | 28 µM | 17.3 µM | 38 µM | 13.6 µM | 30 µM | 8.52 µM | 29.1 µM | 30.6 µM | 15.4 µM
CCCCCCCCCCCCCCCC(=O)OCC(C[As](=O)(O)O)OC(=O)CCCCCCCCCCCCCCC (stereo not given) |  | > 100 µM |  | > 100 µM |  | > 100 µM |  | > 100 µM |  | > 100 µM |  | > 100 µM |  | > 100 µM |  | > 100 µM |  | > 100 µM | > 100 µM | 
O=C(O)CNS(=O)(=O)c1ccc(NC(=O)c2ccc([N+](=O)[O-])cc2)cc1 |  | > 100 µM |  | > 100 µM |  | > 100 µM |  | > 100 µM |  | > 100 µM |  | > 100 µM |  | > 100 µM |  | > 100 µM |  | > 100 µM | > 100 µM | 
COCC[C@H]1CCC/C=C/[C@@H]2C[C@H](O)C[C@H]2[C@H](O)/C=C/C(=O)O1 | 0.0572 µM | 0.258 µM | 0.322 µM | > 100 µM | 0.331 µM | > 29 µM | 0.079 µM |  | 0.313 µM | > 100 µM | 0.0725 µM | > 100 µM | 0.0293 µM | 0.121 µM | 0.0434 µM | 0.179 µM | 0.0351 µM | 0.227 µM | > 100 µM | 0.314 µM
COc1cc2c(cc1OCCCCC(=O)Nc1cc3c4ccccc4ccc3c3ccccc13)N=C[C@@H]1CCCN1C2=O | 3.68 µM | > 100 µM | 1.55 µM | > 100 µM | 2.11 µM | > 25.6 µM | 10.9 µM | 33.5 µM | 1.55 µM | > 38.9 µM | 34.3 µM | > 100 µM | 0.665 µM | 10.8 µM | 32.1 µM | > 100 µM | 5.86 µM | > 76.2 µM | > 52.6 µM | 12.5 µM
COc1cc(OC)c(C(=O)/C=C/c2cccc(C(F)(F)F)c2)c(OC)c1 | 1.58 µM | 5.01 µM | 1.09 µM | 3.46 µM | 1.71 µM | 5.6 µM | 2.11 µM | 6.89 µM | 1.26 µM | 4.83 µM | 3.03 µM | 9.37 µM | 1.16 µM | 3.74 µM | 1.04 µM | 2.42 µM | 1.69 µM | 4.75 µM | 2.68 µM | 0.942 µM
C=C1C(=O)O[C@H]2[C@H]1CC/C(COC(=O)NCCCCNC(=O)OC/C1=C/CC[C@@]3(C)O[C@H]3[C@H]3OC(=O)C(=C)[C@@H]3CC1)=C\CC[C@@]1(C)O[C@@H]21 | 0.586 µM | 2.04 µM | 0.272 µM | 0.845 µM | 3.32 µM | 12.4 µM | 2.35 µM | 4.78 µM | 0.665 µM | 10.4 µM | 12.7 µM | 25.3 µM | 11.4 µM | 30.5 µM | 0.519 µM | 1.92 µM | 0.605 µM | 2.05 µM | 20.8 µM | 5.61 µM
COc1ccc(CN2CC(C)(C)C2=O)c(OC)c1 |  | > 100 µM |  | > 100 µM |  | > 100 µM |  | > 100 µM |  | > 100 µM |  | > 100 µM |  | > 100 µM |  | > 100 µM |  | > 100 µM | > 100 µM | 

— PubChem BioAssay (NCI)
